Columns and labels:
[1] = tested on: LPS-induced NF-κB induction in human embryonic kidney 293 cells cotransfected with TLR4, CD14 and MD2; test: Inhibition of LPS induction of NF-κB (seAP reporter) in HEK 293 cells cotransfected with TLR4, CD14 and MD2; assay type: cell-based; settings: Homo sapiens, HEK293; inhibition of LPS-induced NF-κB induction, HEK 293 TLR4/CD14/MD2 reporter cells; read-out: NFκβ inhibition IC50 value
Excerpt: Assessment of Inhibition of Cytokine Induction (NF-κB): The inhibition of induction of NF-κB (a key transcripitional activator of the innate immune system, leading to uncontrolled cytokine release^72,73 which ultimately leads to multiple organ failure and the shock syndrome) is quantified using human embryonic kidney 293 cells cotransfected with TLR4 (LPS receptor), CD14 and MD2 (co-receptors), available from InvivoGen, Inc. (HEK-Bluetm, San Diego, Calif.), as per protocols provided by the vendor. Stable expression of secreted alkaline phosphatase (seAP) under control of NF-κB/AP-1 promoters is inducible by LPS, and extracellulare seAP in the supernatant is proportional to NF-κB induction. seAP is assayed spectrophotometrically using an alkaline phosphatase-specific chromogen at 620 nm using a rapid-throughput, automated protocol employing a Bio-Tek P2000 liquid handler. Results showing the ability of polycationic sulfonamide compounds to inhibit the induction of NF-κB by LPS are shown in Tables A-F.

[2] = Rapid-throughput BODIPY-TR cadaverine (BC) fluorescence displacement assay for binding affinity to LPS; settings: half-maximal effective displacement of BODIPY-TR cadaverine probe from LPS; 50 mM Tris buffer, pH 7.4; read-out: Binding affinity (BC displacement) ED50 value
Method: Rapid-throughput Fluorescence Displacement Assay for quantifying binding affinities to LPS. […] Polymyxin B (PMB), a peptide antibiotic known to bind and neutralize LPS^65 serves as the positive control and reference compound for every plate, enabling the quantitative assessment of repeatability and reproducibility (CV and Z′ factors) for the assay. Automated liquid handling is performed on a Precision 2000 automated microplate pipetting system, programmed using the Precision Power software, Bio-Tek Instruments Inc., VT, USA. Results are reported as half-maximal effective displacement of probe (ED50) (Tables A-F). In all experiments, Polymyxin B (PMB), a decapeptide antibiotic, known to bind and neutralize LPS,^66-69 is used as a reference compound.

[3] = tested on: LPS-induced lethality in CF-1 mice; test: Mouse lethality assay (D-galactosamine-sensitized mice, supralethal LPS challenge); assay type: in vivo; settings: FIG. 9; for mice protected from LPS lethality: 200 μg/mouse compound i.p., supralethal 200 ng LPS challenge, lethality at 24 h
Excerpt: Compound MQTS 2358 represents spermine-sulfonamide Series A (SPM). Compound MQTS 2383 represents homologated spermine-sulfonamide Series B (HOMO-SPM). Compound MQTS 2389 represents branched homologated spermine-sulfonamide Series D (BRANCHED-HOMO-SPM). Also included in FIG. 9 are positive control compounds MQTS 3938 and MQTS 3942 (L-Lys(C18-alkyl)-spermine and D-Lys(C18-alkyl)-spermine, respectively) previously reported.^60 As shown in this figure, i.p. dosing with these compounds affords significant protection from super-lethal challenges with LPS in this model. Dosages of 200 μg/mouse) protected 5 out of 5 mice with all compounds except MQT 2389 which appears to have toxic effects above 50 μg/mouse dosages. Furthermore, treatment with lower dosages of these compounds also affords significant protection from the toxic effects of LPS.
Mouse lethality experiments: Female, outbred, 9- to 11-week-old CF-1 mice (Charles River, Wilmington, Mass.) weighing 22-28 g are used as described elsewhere.^71 Upon arrival, the mice are allowed to acclimatize for a week prior to experimentation, housed 5 per cage in a controlled environment at the AALAC-accredited University of Kansas Animal Care Facility, and allowed access to mouse chow and water ad libitum. The animals are sensitized to the lethal effects of LPS by D-galactosamine.^74-76 The lethal dose causing 100% mortality (LD100) dose of the batch of LPS used (E. coli 0111:B4 procured from Sigma) is first determined by administering D-galactosamine (800 mg/kg) and LPS (0, 10, 20, 50, 100, 200 ng/mouse) as a single injection intraperitoneally (i.p.) in freshly prepared saline to batches of five animals in a volume of 0.2 ml. […] In experiments designed to test dose-response effects of the polycationic sulfonamides in affording protection against LPS-induced lethality, mice received graded doses of compound diluted in saline, i.p., in one flank, immediately before a supralethal (200 ng) LPS challenge, which is administered as a separate i.p. injection into the other flank. In experiments in which the temporal window of protection is to be examined, a fixed dose of 200 μg/mouse of compound is administered at various times, before, or after supralethal (200 ng/mouse) LPS challenge. Lethality is determined at 24 h post LPS challenge.

[4] = tested on: LPS-induced nitric oxide production in murine macrophage J774A.1 cells; test: NO inhibition (Griess nitrite assay) in LPS-stimulated murine macrophage J774A.1 cells; assay type: cell-based; settings: Mus musculus, J774.A1, 10 ng/ml LPS, 16 h
Method: Assessment of neutralization of LPS toxicity: NO inhibition activity. Nitric oxide production is measured as total nitrite in murine macrophage J774A.1 cells using the Griess assay^70 as described previously.^71 J774A.1 cells are plated at ˜10^5/ml in a volume of 40 μl/well, in 384-well, flat-bottomed, cell culture treated microtiter plates and subsequently stimulated with 10 ng/ml lipopolysaccharide (LPS). Concurrent to LPS stimulation, serially diluted concentrations of test compounds are added to the cell medium and left to incubate for 16 h. Polymyxin B is used as reference compound in each plate. Positive-(LPS stimulation only) and negative-controls (J774A.1 medium only) are included in each experiment. Nitrite concentrations are measured by adding 40 μl of supernatant to equal volumes of Griess reagents (50 μl/well; 0.1% NED solution in ddH2O and 1% sulfanilamide, 5% phosphoric acid solution in ddH2O) and incubating for 15 minutes at room temperature in the dark. Absorbance at 535 nm is measured using a Molecular Devices Spectramax M2 multifunction plate reader (Sunnyvale, Calif.). Nitrite concentrations are interpolated from standard curves obtained from serially diluted sodium nitrite standards. IC50 values are determined for compounds that neutralize LPS inhibit NO production in a dose-dependent manner (Tables A-F). Results in this assay parallel those in the binding assay.

Molecule	IC50 [1]	EC50 [2]	mice protected from LPS lethality [3]	IC50 [4]	dosage above which toxic effects appear ([3]; i.p. dosing in mouse lethality assay)
CCCCCCCCCCCCCCCCS(=O)(=O)NCCCNCCCCNCCCN [MQTS 2358]	280 nM	3870 nM	5 out of 5	450 nM	
CCCCCCCCCCCCCCCCS(=O)(=O)NCCCNCCCNCCCCNCCCN [MQTS 2383]	200 nM	4710 nM	5 out of 5	120 nM	
CCCCCCCCS(=O)(=O)NCCCN(CCCNCCCNCCCCNCCCN)CCCNS(=O)(=O)CCCCCCCC [MQTS 2389, N^1-Bis[N-octanylsulfonyl-3-aminopropyl]-1,18-diamino-5,9,14-triazaoctadecane]	300 nM	2620 nM		320 nM	above 50 μg/mouse
D-Lys(C18-alkyl)-spermine [MQTS 3942, reference compound]			5 out of 5		
L-Lys(C18-alkyl)-spermine [MQTS 3938, reference compound]			5 out of 5		

— patent US7411002B2, “Polycationic sulfonamides and use thereof” (priority 2006, dated 2008)
